Experiments:
adenosine A-2 receptors = biological target: T1, adenosine A-2 receptors (Rattus norvegicus, UniProt P30543); experiment: Test for affinity for brain adenosine A-2 receptors ([3H]NECA competition, striatal membranes); assay type: binding; details: for Ki: rat brain striatum membranes, [3H]NECA, read-out: A-2 Receptor Ki; for A-1 Ki/A-2 Ki: ratio of A-1 Ki to A-2 Ki (selectivity)
T1 construct: from tissue; host or cells: striatal membranes of young male C-D rats (Charles River)
Source text: The test described below was used to determine the potency of test compounds to compete with the ligand [3H]-5'-N-ethyl-carboxamidoadenosine (NECA) for the adenosine A-2 receptors prepared from animal brain membranes. (See also R.R. Bruns, G.H. Lu, and T.A. […] Pharmacol., 29, 331-346 (1986).) Young male rats (C-D strain), obtained from Charles River, are killed by decapitation and the brains are removed. Membranes for ligand binding are isolated from rat brain striatum. The tissue is homogenized in 20 vol ice-cold 50 mM Tris-HCl buffer (pH 7.7) using a polytron (setting for 6 to 20 seconds). The homogenate is centrifuged at 50,000 x g for 10 minutes at 4°C. The pellet is again homogenized in a polytron in 20 vol of buffer, and centrifuged as before. The pellet is finally resuspended in 40 vol of 50 mM Tris-HCl (pH 7.7) per gram of original wet weight of tissue. […] Incubations are carried out at 25°C for 60 minutes. Each tube is filtered through GF/B glass fiber filters using a vacuum. The filters are rinsed two times with 5 ml of the ice-cold buffer. The membranes on the filters are transferred to scintillation vials to which 8 ml of Omnifluor with 5% Protosol is added. The filters are counted by liquid scintillation spectrometry. Specific binding of [3H]NECA is measured as the excess over blanks run in the presence of 100 µM 2-chloroadenosine. Total membrane-bound radioactivity is about 2.5% of that added to the test tubes. […] Specific binding to membranes is about 50% of the total bound. Protein content of the membrane suspension is determined by the method of O.H. Lowry, N.J. Rosebrough, A.L. Farr and R.J. Randall, Protein Measurements With Folin Phenol Reagent, J. Biol. Chem., 193, 265-275 (1951).

Adenosine A-1 receptor = biological target: T2, Adenosine A-1 receptor (Rattus norvegicus, UniProt P25099); experiment: Test for affinity for brain adenosine A-1 receptor binding sites ([3H]cyclohexyladenosine competition); details: rat brain membranes, [3H]cyclohexyladenosine 0.8 nM
T2 construct: the membranes are isolated from whole animal brains; from tissue; host or cells: whole brain membranes of male Sprague-Dawley rats
T2 sequence (P25099 1-326): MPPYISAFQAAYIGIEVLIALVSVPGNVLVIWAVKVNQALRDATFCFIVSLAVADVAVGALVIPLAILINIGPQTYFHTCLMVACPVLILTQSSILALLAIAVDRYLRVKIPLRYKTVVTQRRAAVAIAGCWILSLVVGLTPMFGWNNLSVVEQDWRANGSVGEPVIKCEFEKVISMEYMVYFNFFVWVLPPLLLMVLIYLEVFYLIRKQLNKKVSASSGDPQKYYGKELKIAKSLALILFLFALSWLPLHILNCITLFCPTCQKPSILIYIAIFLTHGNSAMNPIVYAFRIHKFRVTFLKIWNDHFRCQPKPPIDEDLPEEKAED
Source text: The test described below is used to determine the potency of test compounds to compete with the ligand […] for he Adenosine A-1 receptor prepared from rat brain membranes. Male Sprague-Dawley rats are sacrificed by decapitation and the membranes are isolated from whole animal brains. (See R. Goodman, M. Cooper. M. Gavish, and S. Synder, Guanine Nucleotide and Cation Regulation of the Binding of [3H]Diethylphenylxanthine to Adenosine A-1 Receptors in Brain Membrane, Molecular Pharmacology, 21, 329-335 (1982).
Membranes are homogenized (using polytron setting 7 for 10 seconds) in 25 volumes of ice-cold 50 mM Tris-HCl buffer, pH 7.7. […]
The incubation tubes, in triplicate, receive 100 µl of [3H]cyclohexyladenosine, 0.8 nM in the assay, 200 µl of test compounds at various concentrations over the range of 10^-10 M to 10^-6 M diluted with […] Tris-HCl buffer (pH 7.7), 0.2 ml of membrane suspension (8 mg wet weight) and in a final volume of 2 ml with Tris buffer. […] The filters are counted by liquid scintillation spectrometry in 8 ml of Omniflour containing 5% Protosol.
Specific binding of [3H]cyclohexyladenosine is measured as the excess over blanks taken in the presence of 10^-5 M 2-chloroadenosine. Total membrane-bound radioactivity is about 5% of that added to the test tubes. […] Protein content of the membrane suspension is determined by the method of Lowry, et al., Ibid, 265. […]

A-2 receptor = details: rat brain slice assay; cited from earlier work

T1 sequence (P30543 whole entry): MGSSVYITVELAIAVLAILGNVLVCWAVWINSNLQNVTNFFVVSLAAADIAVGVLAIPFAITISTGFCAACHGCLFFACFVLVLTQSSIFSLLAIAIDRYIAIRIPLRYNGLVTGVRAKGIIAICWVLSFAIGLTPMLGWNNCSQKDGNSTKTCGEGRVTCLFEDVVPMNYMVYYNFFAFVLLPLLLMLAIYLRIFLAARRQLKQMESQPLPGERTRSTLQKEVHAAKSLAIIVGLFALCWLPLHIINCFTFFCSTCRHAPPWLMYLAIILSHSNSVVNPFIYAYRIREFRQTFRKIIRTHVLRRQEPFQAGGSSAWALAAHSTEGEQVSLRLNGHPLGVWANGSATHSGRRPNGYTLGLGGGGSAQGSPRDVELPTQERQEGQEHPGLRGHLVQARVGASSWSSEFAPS

SMILES	Ki (adenosine A-2 receptors) [nM]	A-1 Ki/A-2 Ki (adenosine A-2 receptors)	Ki (Adenosine A-1 receptor) [nM]	Ki (A-2 receptor) [nM]
C[C@H](Cc1ccccc1)Nc1nc(N)c2ncn([C@@H]3O[C@H](CO)[C@@H](O)[C@H]3O)c2n1 [Compound 1, (R)-2-[(phenylisopropyl)amino]adenosine]	3.5	2400	8400	
C[C@@H](Cc1ccccc1)Nc1nc(N)c2ncn([C@@H]3O[C@H](CO)[C@@H](O)[C@H]3O)c2n1 [Compound 2, (S)-2-[(phenylisopropyl)amino]adenosine]	158	37	5800	
CCCn1c(=O)c2[nH]c(-c3ccc(OCC(=O)O)cc3)nc2n(CCC)c1=O [XCC, carboxylic acid congener of 8-phenyl-1,3-dipropylxanthine]				34 ± 13
